Reference: patent US20210221832A1, “SUBSTITUTED PYRIDOINDOLES FOR THE TREATMENT AND PROPHYLAXIS OF BACTERIAL INFECTION” (Hoffmann-La Roche Inc., priority 2018, published 2021)
Converted amounts (≈) assume the structure as drawn.

Assay: Plasma stability assay in human plasma
Type: in vitro ADME
Settings: 10 μM prodrug, 37° C., prodrug remaining at 30 min compared to 0 min
Method: (§1) The degradation of prodrug and formation of active drug of present invention were monitored by current plasma stability assay. The assay is conducted in human plasma (purchased from Bioreclamation, Lot No. BRH1380385) or mouse plasma (prepared in-house using CD-1 mouse purchased from Vital River). Plasma is spiked with the test prodrug (10 μM final concentration) dissolved in DMSO (or water) and incubated at 37° C. Aliquots are removed at 0, 5, 15 and 30 minutes of incubation time, quenched with appropriate volume of internal standard solution (I.S., 0.2 μM of tolbutamide, prepared in ACN and water (1:1, v/v)), according to the mass spectrometer intensity of both analytes. Samples are centrifuged, the supernatant are removed and analyzed by LC-MS/MS. The degradation of prodrug was illustrated by calculation of percent remaining of prodrug at 30 min compared to that at 0 min (Table 2).

| Percent Remaining (%) H | SMILES |
| --- | --- |
| 67.2% | CN1C[C@H]2CCN(c3c(-c4cnc5c(c4)c(=O)c(C(=O)O)cn5C)cnc4[nH]c5c(N(C)C(=O)OCOP(=O)(O)O)cc(F)c(F)c5c34)[C@H]2C1 [Example 1.18, 6-[5,6-Difluoro-8-[methyl(phosphonooxymethoxycarbonyl)amino]-4-[(3aR,6aR)-5-methyl-2,3,3a,4,6,6a-hexahydropyrrolo[2,3-c]pyrrol-1-yl]-9H-pyrido[2,3-b]indol-3-yl]-1-methyl-4-oxo-1,8-naphthyridine-3-carboxylic acid] |
| 88.7% | CN1C[C@H]2CCN(c3c(-c4cnc5c(c4)c(=O)c(C(=O)O)cn5C)cnc4[nH]c5c(N(C)C(=O)OCOC(=O)/C=C/C(=O)O)cc(F)c(F)c5c34)[C@H]2C1 [Example 1.21, 6-[5,6-Difluoro-8-[methyl-[[(E)-3-carboxyprop-2-enoyl]oxymethoxycarbonyl]amino]-4-[(3aR,6aR)-5-methyl-2,3,3a,4,6,6a-hexahydropyrrolo[2,3-c]pyrrol-1-yl]-9H-pyrido[2,3-b]indol-3-yl]-1-methyl-4-oxo-1,8-naphthyridine-3-carboxylic acid] |
| 98.4% | CNc1cc(F)c(F)c2c1[nH]c1ncc(-c3ccc4ccc(C(=O)OC(C)OC(=O)OC(C)C)c(=O)n4c3)c(N3CC[C@H]4CN(C)C[C@H]43)c12 (stereo partly drawn) [Example 1.39, 1-Isopropoxycarbonyloxyethyl 7-[5,6-difluoro-8-(methylamino)-4-[(3aS,6aS)-5-methyl-2,3,3a,4,6,6a-hexahydropyrrolo[2,3-c]pyrrol-1-yl]-9H-pyrido[2,3-b]indol-3-yl]-4-oxo-quinolizine-3-carboxylate] |

Assay: Plasma stability assay in mouse plasma
Type: in vitro ADME, CD-1 mouse
Settings: 10 μM prodrug, 37° C., prodrug remaining at 30 min compared to 0 min
Method: as §1

| Percent Remaining (%) M | SMILES |
| --- | --- |
| 72.0% | CN1C[C@H]2CCN(c3c(-c4cnc5c(c4)c(=O)c(C(=O)O)cn5C)cnc4[nH]c5c(N(C)C(=O)OCOP(=O)(O)O)cc(F)c(F)c5c34)[C@H]2C1 [Example 1.18, 6-[5,6-Difluoro-8-[methyl(phosphonooxymethoxycarbonyl)amino]-4-[(3aR,6aR)-5-methyl-2,3,3a,4,6,6a-hexahydropyrrolo[2,3-c]pyrrol-1-yl]-9H-pyrido[2,3-b]indol-3-yl]-1-methyl-4-oxo-1,8-naphthyridine-3-carboxylic acid] |
| 56.0% | CN1C[C@H]2CCN(c3c(-c4cnc5c(c4)c(=O)c(C(=O)O)cn5C)cnc4[nH]c5c(N(C)C(=O)OCOC(=O)/C=C/C(=O)O)cc(F)c(F)c5c34)[C@H]2C1 [Example 1.21, 6-[5,6-Difluoro-8-[methyl-[[(E)-3-carboxyprop-2-enoyl]oxymethoxycarbonyl]amino]-4-[(3aR,6aR)-5-methyl-2,3,3a,4,6,6a-hexahydropyrrolo[2,3-c]pyrrol-1-yl]-9H-pyrido[2,3-b]indol-3-yl]-1-methyl-4-oxo-1,8-naphthyridine-3-carboxylic acid] |
| 0.1% | CNc1cc(F)c(F)c2c1[nH]c1ncc(-c3ccc4ccc(C(=O)OC(C)OC(=O)OC(C)C)c(=O)n4c3)c(N3CC[C@H]4CN(C)C[C@H]43)c12 (stereo partly drawn) [Example 1.39, 1-Isopropoxycarbonyloxyethyl 7-[5,6-difluoro-8-(methylamino)-4-[(3aS,6aS)-5-methyl-2,3,3a,4,6,6a-hexahydropyrrolo[2,3-c]pyrrol-1-yl]-9H-pyrido[2,3-b]indol-3-yl]-4-oxo-quinolizine-3-carboxylate] |

Assay: Lyophilisation Solubility Assay (LYSA)
Type: physicochemical
Settings: aqueous buffer, thermodynamic from solid; 0.05 M phosphate buffer, pH 6.5
Method: The solubility of compounds of present invention was assessed by LYSA assay. Samples were prepared in duplicate from 10 mM DMSO stock solutions (20 μL) diluted in 30 μL pure DMSO. After evaporation of DMSO with a centrifugal vacuum evaporator, the residue was dissolved in 0.05 M phosphate buffer (150 μL, pH 6.5), which was stirred for one hour and shook for two hours. After one night, the solution was filtered using a microtiter filter plate. Then the filtrate and its 1/10 dilution were analyzed by HPLC-UV. In addition, a four-point calibration curve was prepared from the 10 mM stock solutions and used for the solubility determination of the compounds.

| solubility | SMILES |
| --- | --- |
| 315 µg/mL (≈ 458 µM) | CNc1cc(F)c(F)c2c1[nH]c1ncc(-c3ccc4ccc(C(=O)OCCOC(=O)[C@@H](N)C(C)C)c(=O)n4c3)c(N3CC[C@H]4CN(C)C[C@H]43)c12 [Example 1.37, 2-[(2S)-2-Amino-3-methyl-butanoyl]oxyethyl 7-[5,6-difluoro-8-(methylamino)-4-[(3aS,6aS)-5-methyl-2,3,3a,4,6,6a-hexahydropyrrolo[2,3-c]pyrrol-1-yl]-9H-pyrido[2,3-b]indol-3-yl]-4-oxo-quinolizine-3-carboxylate] |
| 595 µg/mL (≈ 834 µM) | CN1C[C@@H]2CCN(c3c(-c4cnc5c(c4)c(=O)c(C(=O)O)cn5C)cnc4[nH]c5c(N(C)C(=O)OCOP(=O)(O)O)cc(F)c(F)c5c34)[C@@H]2C1 [Example 1.43, 6-[5,6-Difluoro-8-[methyl(phosphonooxymethoxycarbonyl)amino]-4-[(3aS,6aS)-5-methyl-2,3,3a,4,6,6a-hexahydropyrrolo[2,3-c]pyrrol-1-yl]-9H-pyrido[2,3-b]indol-3-yl]-1-methyl-4-oxo-1,8-naphthyridine-3-carboxylic acid] |
| > 930 µg/mL | CN1C[C@@H]2CCN(c3c(-c4ccc5ccc(C(=O)O)c(=O)n5c4)cnc4[nH]c5c(N(C)C(=O)CNC(=O)CNC(=O)CN)cc(F)c(F)c5c34)[C@@H]2C1 [Example 1.34, 7-[8-[[2-[[2-[(2-Aminoacetyl)amino]acetyl]amino]acetyl]-methyl-amino]-5,6-difluoro-4-[(3aS,6aS)-5-methyl-2,3,3a,4,6,6a-hexahydropyrrolo[2,3-c]pyrrol-1-yl]-9H-pyrido[2,3-b]indol-3-yl]-4-oxo-quinolizine-3-carboxylic acid] |
| 680 µg/mL (≈ 949 µM) | CN1C[C@@H]2CCN(c3c(-c4ccc5ccc(C(=O)O)c(=O)n5c4)cnc4[nH]c5c(N(C)C(=O)OCOC(=O)/C=C/C(=O)O)cc(F)c(F)c5c34)[C@@H]2C1 [Example 1.33, 7-[5,6-Difluoro-8-[methyl-[[(E)-3-carboxyprop-2-enoyl]oxymethoxycarbonyl]amino]-4-[(3aS,6aS)-5-methyl-2,3,3a,4,6,6a-hexahydropyrrolo[2,3-c]pyrrol-1-yl]-9H-pyrido[2,3-b]indol-3-yl]-4-oxo-quinolizine-3-carboxylic acid] |
| > 875 µg/mL | CN1C[C@@H]2CCN(c3c(-c4ccc5ccc(C(=O)O)c(=O)n5c4)cnc4[nH]c5c(N(C)C(=O)OCOP(=O)(O)O)cc(F)c(F)c5c34)[C@@H]2C1 [Example 1.32, 7-[5,6-Difluoro-8-[methyl(phosphonooxymethoxycarbonyl)amino]-4-[(3aS,6aS)-5-methyl-2,3,3a,4,6,6a-hexahydropyrrolo[2,3-c]pyrrol-1-yl]-9H-pyrido[2,3-b]indol-3-yl]-4-oxo-quinolizine-3-carboxylic acid] |
| > 915 µg/mL | CN1C[C@@H]2CCN(c3c(-c4ccc5ccc(C(=O)O)c(=O)n5c4)cnc4[nH]c5c(N(C)C(=O)CNC(=O)CN)cc(F)c(F)c5c34)[C@@H]2C1 [Example 1.35, 7-[8-[[2-[(2-Aminoacetyl)amino]acetyl]-methyl-amino]-5,6-difluoro-4-[(3aS,6aS)-5-methyl-2,3,3a,4,6,6a-hexahydropyrrolo[2,3-c]pyrrol-1-yl]-9H-pyrido[2,3-b]indol-3-yl]-4-oxo-quinolizine-3-carboxylic acid] |

Second part, the compound before the results:

| SMILES | solubility |
| --- | --- |
| CNc1cc(F)c(C#N)c2c1[nH]c1ncc(-c3cnc4c(c3)c(=O)c(C(=O)O)cn4C)c(N3CC[C@H]4C[N+](C)(COP(=O)(O)O)C[C@H]43)c12 (stereo partly drawn) [Example 1.07, 6-[5-Cyano-6-fluoro-8-(methylamino)-4-[(3aS,6aS)-5-methyl-5-(phosphonooxymethyl)-2,3,3a,4,6,6a-hexahydropyrrolo[2,3-c]pyrrol-5-ium-1-yl]-9H-pyrido[2,3-b]indol-3-yl]-1-methyl-4-oxo-1,8-naphthyridine-3-carboxylic acid] | > 1060 µg/mL |
| CN1C[C@@H]2CCN(c3c(-c4cnc5c(c4)c(=O)c(C(=O)O)cn5C)cnc4[nH]c5c(N(C)C=O)cc(F)c(F)c5c34)[C@@H]2C1 [Example 1.26, 6-[5,6-Difluoro-8-[formyl(methyl)amino]-4-[(3aS,6aS)-5-methyl-2,3,3a,4,6,6a-hexahydropyrrolo[2,3-c]pyrrol-1-yl]-9H-pyrido[2,3-b]indol-3-yl]-1-methyl-4-oxo-1,8-naphthyridine-3-carboxylic acid] | > 783 µg/mL |
| CN1C[C@@H]2CCN(c3c(-c4cnc5c(c4)c(=O)c(C(=O)O)cn5C)cnc4[nH]c5c(N(C)C(=O)OCOP(=O)(O)O)cc(F)c(C#N)c5c34)[C@@H]2C1 [Example 1.01, 6-[5-Cyano-6-fluoro-8-[methyl(phosphonooxymethoxycarbonyl)amino]-4-[(3aS,6aS)-5-methyl-2,3,3a,4,6,6a-hexahydropyrrolo[2,3-c]pyrrol-1-yl]-9H-pyrido[2,3-b]indol-3-yl]-1-methyl-4-oxo-1,8-naphthyridine-3-carboxylic acid] | > 595 µg/mL |
| CN1C[C@@H]2CCN(c3c(-c4cnc5c(c4)c(=O)c(C(=O)O)cn5C)cnc4[nH]c5c(N(C)C=O)cc(F)c(C#N)c5c34)[C@@H]2C1 [Example 1.03, 6-[5-Cyano-6-fluoro-8-[formyl(methyl)amino]-4-[(3aS,6aS)-5-methyl-2,3,3a,4,6,6a-hexahydropyrrolo[2,3-c]pyrrol-1-yl]-9H-pyrido[2,3-b]indol-3-yl]-1-methyl-4-oxo-1,8-naphthyridine-3-carboxylic acid] | > 730 µg/mL |
| CNc1cc(F)c(F)c2c3c(N4CC[C@H]5CN(C)C[C@H]54)c(-c4ccc5ccc(C(=O)O)c(=O)n5c4)cn(COP(=O)(O)O)c-3nc12 [Example 1.36, 7-[5,6-Difluoro-8-(methylamino)-1-(phosphonooxymethyl)-4-[(3aS,6aS)-5-methyl-2,3,3a,4,6,6a-hexahydropyrrolo[2,3-c]pyrrol-1-yl]pyrido[2,3-b]indol-3-yl]-4-oxo-quinolizine-3-carboxylic acid] | > 1000 µg/mL |
| CN1C[C@@H]2CCN(c3c(-c4cnc5c(c4)c(=O)c(C(=O)O)cn5C)cnc4[nH]c5c(N(C)S(=O)(=O)O)cc(F)c(F)c5c34)[C@@H]2C1 [Example 1.27, 6-[5,6-Difluoro-8-[methyl(sulfo)amino]-4-[(3aS,6aS)-5-methyl-2,3,3a,4,6,6a-hexahydropyrrolo[2,3-c]pyrrol-1-yl]-9H-pyrido[2,3-b]indol-3-yl]-1-methyl-4-oxo-1,8-naphthyridine-3-carboxylic acid] | > 685 µg/mL |
| CN1C[C@@H]2CCN(c3c(-c4cnc5c(c4)c(=O)c(C(=O)O)cn5C)cnc4[nH]c5c(N(C)C(=O)OCOC(=O)/C=C/C(=O)O)cc(F)c(F)c5c34)[C@@H]2C1 [Example 1.28, 6-[5,6-Difluoro-8-[methyl-[[(E)-3-carboxyprop-2-enoyl]oxymethoxycarbonyl]amino]-4-[(3aS,6aS)-5-methyl-2,3,3a,4,6,6a-hexahydropyrrolo[2,3-c]pyrrol-1-yl]-9H-pyrido[2,3-b]indol-3-yl]-1-methyl-4-oxo-1,8-naphthyridine-3-carboxylic acid] | > 945 µg/mL |
